Measurements: patent EP1622888B1, “BENZO-, NAPHTHO- AND PHENANTHROCHROMENES SUBSTITUTED WITH AN ARYLAMINE GROUP WITH PHOTOCHROMIC PROPERTIES” (Corning Incorporated, priority 2003, dated 2004)

Test: Photochromic properties: UV-visible absorption of THF solutions before and after exposure to a UV source at 365 nm
Format: physicochemical
Details: 5 mg in 50 ml of THF, optical path of 1 cm, after exposure to a UV source at 365 nm
Method: The photochromic properties of said compounds (1) to (6) and (C1) to (C5) were evaluated.
Said compounds were dissolved, at the rate of 5 mg in 50 ml of THF, and the UV-visible absorptions (optical path of 1 cm) is then measured before and after exposure to a UV source at 365 nm. The observation of the tints and the intensities developed is done by placing the solutions in the sun or before a solar simulator.

SMILES | λMAX VIS: λ of the band of the lowest energy in the field of the visible spectrum of the compound after exposure | λVIS1: λ of the band of highest energy in the field of the visible spectrum of the compound after exposure
COc1ccc2c3c(c4c(c2c1)OC(c1ccccc1)(c1ccc(N(C)C)c(C)c1)C=C4)CCc1ccccc1-3 (centres unmarked) [(3)] | 556 nm | 435 nm
COc1ccc(C2(c3ccc(N(C)C)c(C)c3)C=Cc3c4c(c5cc6c(cc5c3O2)OCC6)-c2ccccc2CC4)cc1 (centres unmarked) [(5)] | 563 nm | 444 nm
COc1ccc(C2(c3ccc(N(C)C)c(Br)c3)C=Cc3c4c(c5cc6c(cc5c3O2)OCC6)-c2ccccc2CC4)cc1 (centres unmarked) [(6)] | 561 nm | 443 nm
COc1cc2c3c(c4c(c2cc1OC)CCc1ccccc1-4)OC(c1ccccc1)(c1ccc(N(C)C)c(C)c1)C=C3 (centres unmarked) [(1)] | 452 nm | –
COc1ccc2c3c(c4c(c2c1)OC(c1ccccc1)(c1ccc(N(C)C)c(-c2ccccc2)c1)C=C4)CCc1ccccc1-3 (centres unmarked) [(4)] | 562 nm | 469 nm
COc1cc2c3c(c4c(c2cc1OC)CCc1ccccc1-4)OC(c1ccccc1)(c1ccc(N(C)C)c(-c2ccccc2)c1)C=C3 (centres unmarked) [(2)] | 465 nm | –

Next, values leading:

λMAX VIS: λ of the band of the lowest energy in the field of the visible spectrum of the compound after exposure | λVIS1: λ of the band of highest energy in the field of the visible spectrum of the compound after exposure | SMILES
584 nm | 482 nm | COc1ccc2c3c(c4c(c2c1)OC(c1ccccc1)(c1ccc(N(C)C)cc1)C=C4)CCc1ccccc1-3 (centres unmarked) [(C3), reference compound]
507 nm | – | COc1cc2c3c(c4c(c2cc1OC)CCc1ccccc1-4)OC(c1ccccc1)(c1ccc(N(C)C)cc1)C=C3 (centres unmarked) [(C1), reference compound]
446 nm | – | COc1cc2c3c(c4c(c2cc1OC)CCc1ccccc1-4)OC(c1ccccc1)(c1ccc(NC(C)=O)cc1)C=C3 (centres unmarked) [(C5), reference compound]
441 nm | – | COc1ccc(C2(c3ccccc3)C=Cc3c(c4c(c5cc(OC)c(OC)cc35)CCc3ccccc3-4)O2)cc1 (centres unmarked) [(C2), reference compound]
548 nm | 429 nm | COc1ccc(C2(c3ccccc3)C=Cc3c4c(c5ccc(OC)cc5c3O2)-c2ccccc2CC4)cc1 (centres unmarked) [(C4), reference compound]
